Results: US20250313558A1, “IMIDAZOLIDINE DERIVATIVE OR PHARMACEUTICALLY ACCEPTABLE SALT THEREOF, AND USE THEREOF” (CELLUS INC., priority 2023, published 2025)
Values belong to the compound of their own block, whether it stands above or below them.

Legend:
Format in all cases: biochemical
[1] = target: T1, ADAM10 (Homo sapiens, UniProt O14672); assay: FRET assay, inhibition of ADAM10
T1 sequence (O14672 214-748): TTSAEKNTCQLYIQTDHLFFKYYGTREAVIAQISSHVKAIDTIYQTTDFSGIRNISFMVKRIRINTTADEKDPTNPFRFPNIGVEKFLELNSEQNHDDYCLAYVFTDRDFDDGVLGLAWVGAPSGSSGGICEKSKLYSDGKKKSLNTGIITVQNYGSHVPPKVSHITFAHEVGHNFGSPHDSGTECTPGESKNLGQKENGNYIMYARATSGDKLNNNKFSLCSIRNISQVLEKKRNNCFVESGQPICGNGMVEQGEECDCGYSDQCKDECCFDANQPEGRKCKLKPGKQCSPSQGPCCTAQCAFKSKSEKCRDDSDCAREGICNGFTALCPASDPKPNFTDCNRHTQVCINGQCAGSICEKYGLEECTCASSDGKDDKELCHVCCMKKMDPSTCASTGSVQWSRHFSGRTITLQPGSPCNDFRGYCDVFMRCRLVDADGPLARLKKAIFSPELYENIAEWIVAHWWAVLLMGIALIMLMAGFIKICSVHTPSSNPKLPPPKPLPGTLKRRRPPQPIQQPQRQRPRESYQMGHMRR
From the text: (§1) FRET assay is a method to detect and quantify the fluorescent signal generated when ADAM/ADAMTS proteins […] specific peptides.

[2] = target: T2, ADAMTS5 (Homo sapiens, UniProt Q9UNA0); assay: FRET assay, inhibition of ADAMTS5
T2 sequence (Q9UNA0 262-930): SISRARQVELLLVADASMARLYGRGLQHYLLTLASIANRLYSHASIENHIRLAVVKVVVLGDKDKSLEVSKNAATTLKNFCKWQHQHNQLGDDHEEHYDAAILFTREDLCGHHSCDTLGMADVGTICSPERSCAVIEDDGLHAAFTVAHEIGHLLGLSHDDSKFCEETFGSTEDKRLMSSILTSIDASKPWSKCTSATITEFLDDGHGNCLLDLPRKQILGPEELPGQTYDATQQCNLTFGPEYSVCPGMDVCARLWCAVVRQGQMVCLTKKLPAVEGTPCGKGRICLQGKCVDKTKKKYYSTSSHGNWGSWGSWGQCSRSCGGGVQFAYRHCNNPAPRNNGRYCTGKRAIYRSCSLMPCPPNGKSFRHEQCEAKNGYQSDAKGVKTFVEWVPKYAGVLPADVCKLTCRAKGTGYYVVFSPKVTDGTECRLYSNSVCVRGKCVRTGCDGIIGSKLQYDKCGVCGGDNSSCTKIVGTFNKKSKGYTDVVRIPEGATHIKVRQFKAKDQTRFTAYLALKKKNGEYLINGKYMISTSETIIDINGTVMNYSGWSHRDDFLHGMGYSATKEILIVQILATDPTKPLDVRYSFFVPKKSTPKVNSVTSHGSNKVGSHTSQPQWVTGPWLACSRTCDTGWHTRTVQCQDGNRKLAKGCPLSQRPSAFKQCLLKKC
Protocol: The control compound GLPG-1972 and four effective compounds (CLS-S210 (Formula 2), CLS-S282 (Formula 3), CLS-S213 (Formula 4), and CLS-S214 (Formula 5)) were treated with ADAMTS5, ADAMTS4, ADAM10, and ADAM17 proteins to perform Fluorescence Resonance Energy Transfer (FRET) evaluation. FRET assay is a method to detect and quantify the fluorescent signal generated when ADAM/ADAMTS proteins […] specific peptides.

[3] = target: ADAM17 (Homo sapiens, UniProt P78536); assay: FRET assay, inhibition of ADAM17
Sequence of ADAM17 (P78536 215-824, species assumed): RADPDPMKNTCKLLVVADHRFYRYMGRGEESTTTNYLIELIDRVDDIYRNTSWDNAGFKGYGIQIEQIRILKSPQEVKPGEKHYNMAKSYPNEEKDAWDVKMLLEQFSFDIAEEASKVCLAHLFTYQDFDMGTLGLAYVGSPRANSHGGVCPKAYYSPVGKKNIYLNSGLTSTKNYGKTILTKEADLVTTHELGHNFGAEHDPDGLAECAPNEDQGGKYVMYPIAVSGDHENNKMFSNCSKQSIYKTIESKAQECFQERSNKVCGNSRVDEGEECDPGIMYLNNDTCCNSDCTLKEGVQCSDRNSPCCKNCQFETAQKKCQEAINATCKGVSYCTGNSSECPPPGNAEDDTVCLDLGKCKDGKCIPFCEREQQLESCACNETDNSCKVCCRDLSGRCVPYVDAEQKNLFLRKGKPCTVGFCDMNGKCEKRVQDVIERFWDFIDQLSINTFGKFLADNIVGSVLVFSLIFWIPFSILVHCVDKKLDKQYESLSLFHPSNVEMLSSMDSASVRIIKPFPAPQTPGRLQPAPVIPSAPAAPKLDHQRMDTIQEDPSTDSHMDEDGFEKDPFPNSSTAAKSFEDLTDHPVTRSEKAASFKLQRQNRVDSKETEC
From the text: as §1

Structure (SMILES): CNC(=O)[C@@H](NC(=O)[C@H](CCCc1ccccc1)[C@H](C)N(O)C=O)C(C)(C)C [GI254023X]
inhibition ability against ADAM10 (in words) [1]: inhibit ADAM10 and ADAM17 at low concentrations

IC50 [2]: 65 nM
Structure (SMILES): C[C@H]1CN(C(=O)CC[C@@]2(C3CC3)NC(=O)NC2=O)CCN1c1cc(F)cc(F)c1 [GLPG-1972]

Structure (SMILES): CC(C)C[C@H](CC(=O)NO)C(=O)N[C@@H](Cc1ccc2ccccc2c1)C(=O)N[C@@H](C)C(N)=O [TAPI-0]
inhibition ability against ADAM17 (in words) [3]: inhibit ADAM10 and ADAM17 at low concentrations
